Where a SMILES comes first, the peptide text is derived from it. Bridges are numbered along the chain shown (N, C = ends).

This data set is described as follows: Determination of the protein binding (90% serum, 30 kDa filter, HPLC). The class given is in vitro ADME. As to conditions: serum. As to the method: Protein binding assays were performed as follows. The purified peptides were mixed with 90% serum and centrifuged through a 30 kDa filter. The ultra-filtrate and the non filtrated serum samples were quantified by HPLC measurements and the protein binding was subsequently calculated.
By fraction unbound is commonly meant free concentration divided by total concentration. The low end stands for little free substance, the high end for much free substance. `CC(C)[C@@H]1NC(=O)CNC(=O)[C@H](CCC(N)=O)NC(=O)[C@H](CCCNC(=N)N)NC(=O)[C@H](Cc2ccc(O)cc2)NC(=O)[C@H](C(C)C)NC(=O)[C@@H]2CSSC[C@H](NC(=O)[C@H](C(C)C)NC(=O)[C@H](CCCNC(=N)N)NC1=O)C(=O)N[C@@H](Cc1c[nH]cn1)C(=O)N[C@@H](CCCNC(=N)N)C(=O)N[C@@H](CCCNC(=N)N)C(=O)N[C@H](C(=O)N[C@@H](CC(N)=O)C(=O)O)CSSC[C@H](NC(=O)[C@H](Cc1ccccc1)NC(=O)CN)C(=O)N[C@@H](Cc1c[nH]c3ccccc13)C(=O)N[C@@H](CC(N)=O)C(=O)N[C@@H](C(C)C)C(=O)N2` [compound 233] (H-GFCWNVCVYRQGVRVCHRRCN-OH; disulfide 3-20, 7-16 (inferred); N-terminus and C-terminus assumed): the unbound share (fraction unbound) is 0.22.

In turn, `CC(C)[C@@H]1NC(=O)CNC(=O)[C@H](CC(N)=O)NC(=O)[C@H](CCCNC(=N)N)NC(=O)[C@H](Cc2ccc(O)cc2)NC(=O)[C@H](C(C)C)NC(=O)[C@@H]2CSSC[C@H](NC(=O)[C@H](C(C)C)NC(=O)[C@H](CCCNC(=N)N)NC1=O)C(=O)N[C@@H](Cc1c[nH]cn1)C(=O)N[C@@H](CCCNC(=N)N)C(=O)N[C@@H](CCCNC(=N)N)C(=O)N[C@H](C(=O)N[C@@H](CC(N)=O)C(=O)O)CSSC[C@H](NC(=O)[C@H](Cc1ccccc1)NC(=O)CN)C(=O)N[C@@H](Cc1c[nH]c3ccccc13)C(=O)N[C@@H](CCCNC(=N)N)C(=O)N[C@@H](C(C)C)C(=O)N2` [compound 76] (H-GFCWRVCVYRNGVRVCHRRCN-OH; disulfide 3-20, 7-16 (inferred); N-terminus and C-terminus assumed) had a fraction unbound of 0.08.

`CC(C)C[C@@H]1NC(=O)CNC(=O)[C@H](CC(N)=O)NC(=O)[C@H](CCCNC(=N)N)NC(=O)[C@H](CCCCN)NC(=O)[C@H](CO)NC(=O)[C@@H]2CSSC[C@H](NC(=O)[C@H](C(C)C)NC(=O)[C@H](CCCNC(=N)N)NC1=O)C(=O)N[C@@H](Cc1ccc(O)cc1)C(=O)N[C@@H](CCCNC(=N)N)C(=O)N[C@@H](CCCNC(=N)N)C(=O)N[C@H](C(=O)N[C@@H](CC(N)=O)C(=O)O)CSSC[C@H](NC(=O)[C@H](Cc1ccccc1)NC(=O)CN)C(=O)N[C@@H](Cc1c[nH]c3ccccc13)C(=O)N[C@@H](Cc1c[nH]cn1)C(=O)N[C@@H](C(C)C)C(=O)N2` [compound 396] (H-GFCWHVCSKRNGLRVCYRRCN-OH; disulfide 3-20, 7-16 (inferred); N-terminus and C-terminus assumed) gave a fraction unbound of 0.08.

As for `CC(C)[C@@H]1NC(=O)CNC(=O)[C@H](CC(N)=O)NC(=O)[C@H](CCCNC(=N)N)NC(=O)[C@H](Cc2ccc(O)cc2)NC(=O)[C@H](C(C)C)NC(=O)[C@@H]2CSSC[C@H](NC(=O)[C@H](CC(N)=O)NC(=O)[C@H](CCCNC(=N)N)NC1=O)C(=O)N[C@@H](Cc1c[nH]cn1)C(=O)N[C@@H](CCCNC(=N)N)C(=O)N[C@@H](CCCNC(=N)N)C(=O)N[C@H](C(=O)N[C@@H](CC(N)=O)C(=O)O)CSSC[C@H](NC(=O)[C@H](Cc1ccccc1)NC(=O)CN)C(=O)N[C@@H](Cc1c[nH]c3ccccc13)C(=O)N[C@@H](CC(N)=O)C(=O)N[C@@H](C(C)C)C(=O)N2` [compound 251] (H-GFCWNVCVYRNGVRNCHRRCN-OH; disulfide 3-20, 7-16 (inferred); N-terminus and C-terminus assumed), the free fraction (fraction unbound) is 0.29.

In turn, `CC(C)[C@@H]1NC(=O)[C@H](Cc2c[nH]cn2)NC(=O)[C@H](Cc2c[nH]c3ccccc23)NC(=O)[C@@H](NC(=O)[C@H](Cc2ccccc2)NC(=O)CN)CSSC[C@@H](C(=O)N[C@@H](CC(N)=O)C(=O)O)NC(=O)[C@H](CCCNC(=N)N)NC(=O)[C@H](CCCNC(=N)N)NC(=O)[C@H](Cc2ccc(O)cc2)NC(=O)[C@@H]2CSSC[C@H](NC1=O)C(=O)N[C@@H](C)C(=O)N[C@@H](CCCNC(=N)N)C(=O)N[C@@H](CCCNC(=N)N)C(=O)N[C@@H](CC(N)=O)C(=O)NCC(=O)N[C@@H](C)C(=O)N[C@@H](CCCNC(=N)N)C(=O)N[C@@H](C(C)C)C(=O)N2` [compound 394] (H-GFCWHVCARRNGARVCYRRCN-OH; disulfide 3-20, 7-16 (inferred); N-terminus and C-terminus assumed) showed an unbound share (fraction unbound) of 0.2.

Molecule `CC(C)[C@@H]1NC(=O)CNC(=O)[C@H](CC(N)=O)NC(=O)[C@H](CCCNC(=N)N)NC(=O)[C@H](CCCCN)NC(=O)[C@H](C(C)C)NC(=O)[C@@H]2CSSC[C@H](NC(=O)[C@H](CCCCN)NC(=O)[C@H](CCCNC(=N)N)NC1=O)C(=O)N[C@@H](Cc1ccc(O)cc1)C(=O)N[C@@H](CCCNC(=N)N)C(=O)N[C@@H](CCCNC(=N)N)C(=O)N[C@H](C(=O)N[C@@H](CC(N)=O)C(=O)O)CSSC[C@H](NC(=O)[C@H](Cc1ccccc1)NC(=O)CN)C(=O)N[C@@H](Cc1ccccc1)C(=O)N[C@@H](CCCNC(=N)N)C(=O)N[C@@H](C(C)C)C(=O)N2` [compound 381] (H-GFCFRVCVKRNGVRKCYRRCN-OH; disulfide 3-20, 7-16 (inferred); N-terminus and C-terminus assumed) showed a fraction unbound of 0.02.

The molecule `CC(C)C[C@@H]1NC(=O)[C@@H]2CSSC[C@H](NC(=O)[C@H](C(C)C)NC(=O)[C@H](CCCNC(=N)N)NC(=O)[C@H](C(C)C)NC(=O)CNC(=O)[C@H](CC(N)=O)NC(=O)[C@H](CCCNC(=N)N)NC(=O)[C@H](Cc3ccc(O)cc3)NC1=O)C(=O)N[C@@H](Cc1c[nH]cn1)C(=O)N[C@@H](CCCNC(=N)N)C(=O)N[C@@H](CCCNC(=N)N)C(=O)N[C@H](C(=O)N[C@@H](CC(N)=O)C(=O)O)CSSC[C@H](NC(=O)[C@H](Cc1ccccc1)NC(=O)CN)C(=O)N[C@@H](Cc1c[nH]c3ccccc13)C(=O)N[C@@H](CC(N)=O)C(=O)N[C@@H](C(C)C)C(=O)N2` [compound 275] (H-GFCWNVCLYRNGVRVCHRRCN-OH; disulfide 3-20, 7-16 (inferred); N-terminus and C-terminus assumed) had an unbound share (fraction unbound) of 0.2.

`CC(C)[C@@H]1NC(=O)CNC(=O)[C@H](CC(N)=O)NC(=O)[C@H](CCCNC(=N)N)NC(=O)[C@H](Cc2ccc(O)cc2)NC(=O)[C@H](C(C)C)NC(=O)[C@@H]2CSSC[C@H](NC(=O)[C@H](C(C)C)NC(=O)[C@H](CCCNC(=N)N)NC1=O)C(=O)N[C@@H](Cc1ccc(O)cc1)C(=O)N[C@@H](CCCNC(=N)N)C(=O)N[C@@H](CCCNC(=N)N)C(=O)N[C@H](C(=O)N[C@@H](CC(N)=O)C(=O)O)CSSC[C@H](NC(=O)[C@H](Cc1ccccc1)NC(=O)CN)C(=O)N[C@@H](CO)C(=O)N[C@@H](Cc1ccc(O)cc1)C(=O)N[C@@H](C(C)C)C(=O)N2` [compound 7] (H-GFCSYVCVYRNGVRVCYRRCN-OH; disulfide 3-20, 7-16 (inferred); N-terminus and C-terminus assumed): the fraction unbound was 0.32.

Turning to `CC(C)[C@@H]1NC(=O)CNC(=O)[C@H](CC(N)=O)NC(=O)[C@H](CCCNC(=N)N)NC(=O)[C@H](Cc2ccc(O)cc2)NC(=O)[C@H](C(C)C)NC(=O)[C@@H]2CSSC[C@H](NC(=O)[C@H]([C@@H](C)O)NC(=O)[C@H](CCCNC(=N)N)NC1=O)C(=O)N[C@@H](Cc1ccc(O)cc1)C(=O)N[C@@H](CCCNC(=N)N)C(=O)N[C@@H](CCCNC(=N)N)C(=O)N[C@H](C(=O)N[C@@H](CC(N)=O)C(=O)O)CSSC[C@H](NC(=O)[C@H](Cc1ccccc1)NC(=O)CN)C(=O)NCC(=O)N[C@@H](CCCNC(=N)N)C(=O)N[C@@H](C(C)C)C(=O)N2` [compound 171] (H-GFCGRVCVYRNGVRTCYRRCN-OH; disulfide 3-20, 7-16), the free fraction (fraction unbound) is 0.16.

Molecule `CC(C)[C@@H]1NC(=O)CNC(=O)[C@H](CC(N)=O)NC(=O)[C@H](CCCNC(=N)N)NC(=O)[C@H](Cc2ccc(O)cc2)NC(=O)[C@H](C(C)C)NC(=O)[C@@H]2CSSC[C@H](NC(=O)[C@H](CO)NC(=O)[C@H](CCCNC(=N)N)NC1=O)C(=O)N[C@@H](Cc1ccc(O)cc1)C(=O)N[C@@H](CCCNC(=N)N)C(=O)N[C@@H](CCCNC(=N)N)C(=O)N[C@H](C(=O)N[C@@H](CC(N)=O)C(=O)O)CSSC[C@H](NC(=O)[C@H](Cc1ccccc1)NC(=O)CN)C(=O)N[C@@H](C)C(=O)N[C@@H](CCCNC(=N)N)C(=O)N[C@@H](C(C)C)C(=O)N2` [compound 122] (H-GFCARVCVYRNGVRSCYRRCN-OH; disulfide 3-20, 7-16) showed a fraction unbound of 0.19.

For the molecule `CC(C)[C@@H]1NC(=O)[C@H](CCCNC(=N)N)NC(=O)[C@H](Cc2c[nH]cn2)NC(=O)CNC(=O)[C@H](CC(N)=O)NC(=O)[C@H](CCCNC(=N)N)NC(=O)[C@H](Cc2ccc(O)cc2)NC(=O)[C@H](C(C)C)NC(=O)[C@@H]2CSSC[C@H](NC1=O)C(=O)N[C@@H](Cc1c[nH]cn1)C(=O)N[C@@H](CCCNC(=N)N)C(=O)N[C@@H](CCCNC(=N)N)C(=O)N[C@H](C(=O)N[C@@H](CC(N)=O)C(=O)O)CSSC[C@H](NC(=O)[C@H](Cc1ccccc1)NC(=O)CN)C(=O)N[C@@H](Cc1c[nH]c3ccccc13)C(=O)N[C@@H](CC(N)=O)C(=O)N[C@@H](C(C)C)C(=O)N2` [compound 237] (H-GFCWNVCVYRNGHRVCHRRCN-OH; disulfide 3-20, 7-16 (inferred); N-terminus and C-terminus assumed), the fraction unbound is 0.6.

`CC(C)C[C@@H]1NC(=O)CNC(=O)[C@H](CC(N)=O)NC(=O)[C@H](CCCNC(=N)N)NC(=O)[C@H](CCCCN)NC(=O)[C@H](C)NC(=O)[C@@H]2CSSC[C@H](NC(=O)[C@H](C(C)C)NC(=O)[C@H](CCCNC(=N)N)NC1=O)C(=O)N[C@@H](Cc1ccc(O)cc1)C(=O)N[C@@H](CCCNC(=N)N)C(=O)N[C@@H](CCCNC(=N)N)C(=O)N[C@H](C(=O)N[C@@H](CC(N)=O)C(=O)O)CSSC[C@H](NC(=O)[C@H](Cc1ccccc1)NC(=O)CN)C(=O)N[C@@H](Cc1c[nH]c3ccccc13)C(=O)N[C@@H](Cc1ccc(O)cc1)C(=O)N[C@@H](C)C(=O)N2` [compound 450] (H-GFCWYACAKRNGLRVCYRRCN-OH; disulfide 3-20, 7-16 (inferred); N-terminus and C-terminus assumed): the fraction unbound was 0.02.

These data come from US20160158317A1, “Antimicrobial Peptide Variants and Polynucleotides Encoding Same” (Adenium Biotech A/S, priority 2010, published 2016).
